Patent US8710233B2 (Gruenenthal GmbH, priority 2005, dated 2014)
Where two headings read alike, the source gives them in different places.

Experiments:
[1] = system: formaldehyde induced nociceptive behaviour; test: Formaldehyde test in mice, second (late) phase; assay type: in vivo, mouse; conditions: mouse, read-out: inhibition formaldehyde test (n = 10)
[2] = system: cold allodynia after chronic constriction injury; test: Neuropathic pain in mice, Bennet model (chronic constriction injury, cold allodynia); assay type: in vivo; conditions: mouse
Description: VI. Neuropathic Pain in Mice
The efficacy of compounds of general formula I in the treatment of neuropathic pain is investigated by using the Bennet modell (chronic constriction injury; Bennett and Xie, 1988, Pain 33: 87-107.
NMRI mice (weight 16 to 18 g) under ketavet-rompun anaesthesia are supplied with three loose ligatures of the right nervus ischiaticus. The animals develop an oversensitivity to cold at the position of the pad that is innervated by the injured nerve which—after a recovery period of one week—is quantified over a period of three weeks by using a metal plate that is cooled to 4° C. (cold allodynia). The animals are observed for a period of 2 minutes on this plate and the number of brisk withdrawal reactions of the injured nerve is counted. […] The group size is n=10, the stastical significance of efficacy against allodynia (*=p<0.05) is determined by analysis of variance with repeated measurements and post hoc analysis with Bonferroni adjustment.

[3] = target: T1, vanilloid receptor 1 (VR1/TRPV1) of the rat species (Rattus norvegicus, UniProt O35433); test: FLIPR Ca2+ influx assay on rat dorsal root ganglia cells (pharmacological method I); assay type: cell-based; conditions: table 4, capsaicin
T1 construct: The spinal column is removed from decapitated rats; from tissue; host or cells: primary cells dissociated from rat dorsal root ganglia
Method in brief: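 Primary rat dorsal root ganglion cells loaded with 2 μM Fluo-4, Ca2+ influx read on FLIPR as peak fluorescence. Triplicates, at least 3 independent experiments.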

T1 sequence (O35433 whole entry): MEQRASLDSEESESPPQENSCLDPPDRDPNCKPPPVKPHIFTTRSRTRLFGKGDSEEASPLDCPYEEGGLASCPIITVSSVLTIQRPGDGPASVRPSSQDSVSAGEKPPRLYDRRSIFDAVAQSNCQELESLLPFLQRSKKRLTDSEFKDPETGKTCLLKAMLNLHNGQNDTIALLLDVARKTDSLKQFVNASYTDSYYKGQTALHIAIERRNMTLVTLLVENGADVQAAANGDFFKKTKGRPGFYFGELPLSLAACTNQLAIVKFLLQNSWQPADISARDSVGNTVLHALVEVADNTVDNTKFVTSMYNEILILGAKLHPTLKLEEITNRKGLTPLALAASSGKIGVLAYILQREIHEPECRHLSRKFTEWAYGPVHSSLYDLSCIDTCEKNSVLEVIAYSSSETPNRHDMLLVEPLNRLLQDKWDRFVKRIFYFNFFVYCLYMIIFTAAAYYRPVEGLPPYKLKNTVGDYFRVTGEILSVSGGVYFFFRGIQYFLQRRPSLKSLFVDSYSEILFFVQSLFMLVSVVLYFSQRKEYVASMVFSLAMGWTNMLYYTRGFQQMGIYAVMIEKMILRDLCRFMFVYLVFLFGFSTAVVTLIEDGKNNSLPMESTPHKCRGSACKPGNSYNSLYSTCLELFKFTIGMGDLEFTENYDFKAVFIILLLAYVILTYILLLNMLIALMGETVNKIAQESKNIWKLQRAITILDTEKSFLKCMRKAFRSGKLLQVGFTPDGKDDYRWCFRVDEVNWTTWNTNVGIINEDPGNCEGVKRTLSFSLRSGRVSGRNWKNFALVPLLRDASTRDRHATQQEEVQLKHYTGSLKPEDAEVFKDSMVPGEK

| Ki ([3]; read-out: Ki (rat) Cap.) | Ki ([3]; Ki (rat) Cap.) | SMILES | inhibition in vivo at 0.03 mg/kg ([1]; 0.03 mg/kg body weight po) | inhibition Bennet model (n = 10) ([2]; 0.001 mg/kg body weight po) | inhibition Bennet model (n = 10) ([2]; 0.01 mg/kg body weight po) | inhibition in vivo at 0.3 mg/kg ([1]; 0.3 mg/kg body weight po) |
| --- | --- | --- | --- | --- | --- | --- |
| 1 nM | – | CC(C(=O)NCc1ccc(C(C)(C)C)nc1OC1CCCC1)c1ccc(NS(C)(=O)=O)c(F)c1 (centres unmarked) [Example 234, N-(6-tert-butyl-2-cyclopentyloxy-pyridin-3-ylmethyl)-2-(3-fluoro-4-methylsulfonamido-phenyl)-propionamide] | 5% | 0.001 po 26% | – | – |
| 8.3 nM | – | Cc1ccc(Cl)cc1Nc1nc(C(F)(F)F)ccc1CNC(=O)C(C)c1ccc(NS(C)(=O)=O)c(F)c1 (centres unmarked) [Example 136, N-[2-(5-chloro-2-methyl-phenylamino)-6-trifluoromethyl-pyridin-3-ylmethyl]-2-(3-fluoro-4-methylsulfonamido-phenyl)-propionamide] | – | – | 0.01 po 13% | – |
| – | 1 nM | CC(C(=O)NCc1ccc(C(F)(F)F)nc1OCCC(C)(C)C)c1ccc(NS(C)(=O)=O)c(F)c1 (centres unmarked) [Example 125] | – | – | 0.01 po 17% | 24% |
